Measurements published in patent publication US20260273072A1, “NOVEL PLK1 DEGRADATION INDUCING COMPOUND” (UPPTHERA, INC., priority 2023, published 2026).

Tests used:
Type in all cases: cell-based
PLK1 = biological target: T1, PLK1 (Homo sapiens, UniProt P53350); test: Luciferase assay for PLK1 in HeLa LgBit (Plk1-HiBit KI) cell line; settings: 300 nM compound, luminescence after 9 hours
T1 construct: endogenous in cells; host or cells: HeLa LgBit (Plk1-HiBit KI): HeLa stably expressing LgBit, with a CRISPR/Cas9 knock-in of HiBit at the endogenous PLK1 locus
T1 sequence (P53350 whole entry): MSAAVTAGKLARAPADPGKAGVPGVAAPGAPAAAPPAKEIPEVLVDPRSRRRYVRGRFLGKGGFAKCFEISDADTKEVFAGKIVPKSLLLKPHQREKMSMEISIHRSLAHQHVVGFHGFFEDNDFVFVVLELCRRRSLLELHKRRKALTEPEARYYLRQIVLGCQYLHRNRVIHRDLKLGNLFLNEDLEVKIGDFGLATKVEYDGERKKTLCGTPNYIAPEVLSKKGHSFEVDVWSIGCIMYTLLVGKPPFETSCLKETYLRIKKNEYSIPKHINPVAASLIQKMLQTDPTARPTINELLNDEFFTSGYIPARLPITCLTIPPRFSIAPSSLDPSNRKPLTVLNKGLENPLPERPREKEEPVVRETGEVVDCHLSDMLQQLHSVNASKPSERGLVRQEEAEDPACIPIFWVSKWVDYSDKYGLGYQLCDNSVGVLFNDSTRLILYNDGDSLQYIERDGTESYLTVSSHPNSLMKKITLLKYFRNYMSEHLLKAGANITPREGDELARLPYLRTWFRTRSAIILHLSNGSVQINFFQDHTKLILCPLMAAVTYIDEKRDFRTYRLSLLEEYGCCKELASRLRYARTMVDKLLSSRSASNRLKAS
Experimental: 2. Luciferase Assay for PLK1
(1) Preparation and Culture of HeLa LgBit (Plk1-HiBit KI) Cell Line
A HeLa cell line in which the LgBit vector was transfected and expressed stably was prepared. Then, after constructing gRNA and donor to express the HiBit amino acid sequence behind the C-terminal of the PLK1 gene, which was inherent in the cell, it was inserted into the cell together with a vector capable of expressing CRISPR/Cas9. Only the cells in which the insertion was completed and knock-in had progressed were selected, sub-cultured and used.
For cell culture, DMEM (Gibco), FBS (Gibco), PS (Gibco), […] cell culture dish (SPL), […] cell culture dish (SPL), 96-well culture plate (SPL), PBS pH 7.4 (Gibco), TrypLE™ Express (Gibco), Cell counter (Thermo Fisher Scientific) and 0.4% Trypan Blue Solution (DYNEBIO) were used.
(2) Treatment of Compounds of the Present Invention and Method of Luciferase Assay
In the case of HeLa LgBit (Plk1-HiBit KI), the compounds were treated after being released after thymidine block, and the process was as follows. Thymidine (Sigma-Aldrich) was completely dissolved in ddH2O and used in the experiment. For thymidine block, the products were treated with 2 mM of thymidine and then incubated for 24 hours. For release and chemical treatment, the medium was suctioned and washed with 1×PBS. TrypLE™ (Gibco) was added and incubated in 37° C. CO2 incubator (Thermo Fisher Scientific) for 5 mins. Cells neutralized by adding complete media were counted through a counter. For each well of a 96-well culture plate (SPL), 3.3×10^4 cells and a total medium volume of 150 μl were seeded and incubated in a CO2 incubator.
Each cell line was incubated in a CO2 incubator for 18 hours, and Endurazine (Promega, Cat. No. N257B) was added to each well to make up 4% of the total volume. After adding compounds of Examples in a 96-well white plate (SPL) to a concentration of 300 nM, the wavelength of the plate reader (BMG Labtech, CLARIOstar Plus) was set to 470-480 nm, and then the luminescence was tracked in real time.
In Table 2, Activity represents the ratio of the luminescence value of each Exemplary Compound treatment group to DMSO treatment group (+++: <0.3, ++: <0.5, +: <0.7).

NCI-H526 cell line = test: Cell viability assay for NCI-H526 cell line (EZ-Cytox); settings: Homo sapiens, NCI-H526, 120 h; H526 cells, 5 days, 3000 nM to 0.46 nM
Experimental: (§1) 3. Cell Viability Assay for NCI-H69, NCI-H526 Cell Lines
(§2) (1) Culture of NCI-H69, NCI-H526 Cell Lines
(§3) The NCI-H69 (hereafter H69) and NCI-H526 (hereafter H526) cell lines were purchased from KCLB.
(§4) (2) Treatment of Compounds of the Present Invention and Method of Cell Viability Assay
(§5) After treating the compound to each well to make the total volume of 200 μl, it was cultured in a CO2 incubator (Thermo Fisher Scientific) for 5 days. […] The absorbance of the completely cultured sample was measured by setting the wavelength of a plate reader (BMG Labtech) to […], and was measured after shaking for 3 minutes in a plate reader before measurement.
(§6) The results of cell viability for H526 and H69 cell line are shown in Table 3 and Table 4, respectively.
(§7) In Table 3 and Table 4, Activity represents IC50 value of each Exemplary Compound treatment group to H526 and H69 cell line, respectively (A: <30 nM, B: <50 nM, C: <100 nM, D: <200 nM, E: <400 nM).

NCI-H69 cell line = test: Cell viability assay for NCI-H69 cell line (EZ-Cytox); settings: Homo sapiens, NCI-H69, 120 h; H69 cells, 5 days, 3000 nM to 0.46 nM
Experimental: as §1, §2, §3, §4, §5, §6, §7

MRC-5 cell line = test: Cell viability assay for MRC-5 cell line (EZ-Cytox); settings: Homo sapiens, MRC5, 120 h; MRC-5 normal cell line, 5 days, 10000 nM to 1.52 nM; read-out: Activity: IC50 value, cell viability, MRC-5 cell line (Exemplary Compounds)
Experimental: 4. Cell Viability Assay for MRC-5 Cell Line
(1) Culture of MRC-5 Cell Line
The MRC-5 cell line was purchased from KCLB. Passage of cultured cells was maintained within P15.
(2) Treatment of Compounds of the Present Invention
Then, it was cultured in 37° C. CO2 incubator (Thermo Fisher Scientific) for 5 days.
(3) Cytotoxicity Experiment
CO2 incubator for 4 hours.

Activity: ratio of the luminescence value of compound treatment group to DMSO treatment group (PLK1)	Structure (SMILES)	IC50 (NCI-H526 cell line) [nM]	IC50 (NCI-H69 cell line) [nM]	IC50 (MRC-5 cell line) [nM]
+++ (+++: <0.3)	COc1cc(C(=O)NC2CCC(N(C)CC3CCN(c4ccc(C5CCC(=O)NC5=O)cc4C)CC3)CC2)ccc1Nc1ncc2c(n1)N(C1CCCC1)CC(F)(F)C(=O)N2C (stereo not shown) [Compound 6, 4-((9-cyclopentyl-7,7-difluoro-5-methyl-6-oxo-6,7,8,9-tetrahydro-5H-pyrimido[4,5-b][1,4]diazepin-2-yl)amino)-N-((1r,4r)-4-(((1-(4-(2,6-dioxopiperidin-3-yl)-2-methylphenyl)piperidin-4-yl)methyl)(methyl)amino)cyclohexyl)-3-methoxybenzamide]	< 100	< 50	> 10000
++ (++: <0.5)	COc1cc(C(=O)N[C@H]2CC[C@H](CN(C)C3CCN(c4ccc(C5CCC(=O)NC5=O)nc4)CC3)CC2)ccc1Nc1ncc2c(n1)N(C1CCCC1)CC(F)(F)C(=O)N2C (stereo partly shown) [Compound 9, 4-((9-cyclopentyl-7,7-difluoro-5-methyl-6-oxo-6,7,8,9-tetrahydro-5H-pyrimido[4,5-b][1,4]diazepin-2-yl)amino)-N-((1r,4r)-4-(((1-(6-(2,6-dioxopiperidin-3-yl)pyridin-3-yl)piperidin-4-yl)(methyl)amino)methyl)cyclohexyl)-3-methoxybenzamide]	< 30	< 30	> 10000
+++ (+++: <0.3)	COc1cc(C(=O)NC2CCC(N(C)CC3CCN(c4ccc(C5CCC(=O)NC5=O)nc4)CC3)CC2)ccc1Nc1ncc2c(n1)N(C1CCCC1)CC(F)(F)C(=O)N2C (stereo not shown) [Compound 10, 4-((9-cyclopentyl-7,7-difluoro-5-methyl-6-oxo-6,7,8,9-tetrahydro-5H-pyrimido[4,5-b][1,4]diazepin-2-yl)amino)-N-((1r,4r)-4-(((1-(6-(2,6-dioxopiperidin-3-yl)pyridin-3-yl)piperidin-4-yl)methyl)(methyl)amino)cyclohexyl)-3-methoxybenzamide]	< 30	< 30	> 10000
++ (++: <0.5)	COc1cc(C(=O)NC2CCC(N(C)CC3CCN(c4ccc(C5CCC(=O)NC5=O)nc4)CC3)CC2)ccc1Nc1ncc2c(n1)N(C(C)C)CC(F)(F)C(=O)N2C (stereo not shown) [Compound 11, 4-((7,7-difluoro-9-isopropyl-5-methyl-6-oxo-6,7,8,9-tetrahydro-5H-pyrimido[4,5-b][1,4]diazepin-2-yl)amino)-N-((1r,4r)-4-(((1-(6-(2,6-dioxopiperidin-3-yl)pyridin-3-yl)piperidin-4-yl)methyl)(methyl)amino)cyclohexyl)-3-methoxybenzamide]	< 30	< 30	> 10000
+++ (+++: <0.3)	COc1cc(C(=O)NC2CCC(N(C)CC3CCN(c4cnc(C5CCC(=O)NC5=O)cc4C)CC3)CC2)ccc1Nc1ncc2c(n1)N(C1CCCC1)CC(F)(F)C(=O)N2C (stereo not shown) [Compound 14, 4-((9-cyclopentyl-7,7-difluoro-5-methyl-6-oxo-6,7,8,9-tetrahydro-5H-pyrimido[4,5-b][1,4]diazepin-2-yl)amino)-N-((1r,4r)-4-(((1-(6-(2,6-dioxopiperidin-3-yl)-4-methylpyridin-3-yl)piperidin-4-yl)methyl)(methyl)amino)cyclohexyl)-3-methoxybenzamide]	< 30	< 30	> 10000

Further lines, the compound ahead of its results:

Structure (SMILES)	Activity: ratio of the luminescence value of compound treatment group to DMSO treatment group (PLK1)	IC50 (NCI-H526 cell line) [nM]	IC50 (NCI-H69 cell line) [nM]	IC50 (MRC-5 cell line) [nM]
COc1cc(C(=O)NN2CCC(CCN3CCN(c4cc(OC)c(C5CCC(=O)NC5=O)cc4F)CC3)CC2)ccc1Nc1ncc2c(n1)N(C(C)C)CC(F)(F)C(=O)N2C (stereo not shown) [Compound 7, 4-((7,7-difluoro-9-isopropyl-5-methyl-6-oxo-6,7,8,9-tetrahydro-5H-pyrimido[4,5-b][1,4]diazepin-2-yl)amino)-N-(4-(2-(4-(4-(2,6-dioxopiperidin-3-yl)-2-fluoro-5-methoxyphenyl)piperazin-1-yl)ethyl)piperidin-1-yl)-3-methoxybenzamide]	++ (++: <0.5)	< 50	< 50	> 10000
COc1cc(C(=O)N[C@H]2CC[C@H](N(C)CC3CCN(c4cccc(N5CCC(=O)NC5=O)c4)CC3)CC2)ccc1Nc1ncc2c(n1)N(C1CCCC1)CC(F)(F)C(=O)N2C [Compound 8, 4-((9-cyclopentyl-7,7-difluoro-5-methyl-6-oxo-6,7,8,9-tetrahydro-5H-pyrimido[4,5-b][1,4]diazepin-2-yl)amino)-N-((1r,4r)-4-(((1-(3-(2,4-dioxotetrahydropyrimidin-1 (2H)-yl)phenyl)piperidin-4-yl)methyl)(methyl)amino)cyclohexyl)-3-methoxybenzamide]	++ (++: <0.5)	< 30	< 30	> 10000
COc1cc(C(=O)NC2CCC(N(C)CC3CCN(c4cnc(C5CCC(=O)NC5=O)cc4C)CC3)CC2)ccc1Nc1ncc2c(n1)N(C)CC(F)(F)C(=O)N2C (stereo not shown) [Compound 12, 4-((7,7-difluoro-5,9-dimethyl-6-oxo-6,7,8,9-tetrahydro-5H-pyrimido[4,5-b][1,4]diazepin-2-yl)amino)-N-((1r,4r)-4-(((1-(6-(2,6-dioxopiperidin-3-yl)-4-methylpyridin-3-yl)piperidin-4-yl)methyl)(methyl)amino)cyclohexyl)-3-methoxybenzamide]	+++ (+++: <0.3)	< 200	< 200	> 10000
CCN1CC(F)(F)C(=O)N(C)c2cnc(Nc3ccc(C(=O)NC4CCC(N(C)CC5CCN(c6cnc(C7CCC(=O)NC7=O)cc6C)CC5)CC4)cc3OC)nc21 (stereo not shown) [Compound 13, N((1r,4r)-4-(((1-(6-(2,6-dioxopiperidin-3-yl)-4-methylpyridin-3-yl)piperidin-4-yl)methyl)(methyl)amino)cyclohexyl)-4-((9-ethyl-7,7-difluoro-5-methyl-6-oxo-6,7,8,9-tetrahydro-5H-pyrimido[4,5-b][1,4]diazepin-2-yl)amino)-3-methoxybenzamide]	+++ (+++: <0.3)	< 30	< 30	> 10000
COc1cc(C(=O)NC2CCC(N(C)CC3CCN(c4cnc(C5CCC(=O)NC5=O)cc4C)CC3)CC2)ccc1Nc1ncc2c(n1)N(C(C)C)CC(F)(F)C(=O)N2C (stereo not shown) [Compound 15, 4-((7,7-difluoro-9-isopropyl-5-methyl-6-oxo-6,7,8,9-tetrahydro-5H-pyrimido[4,5-b][1,4]diazepin-2-yl)amino)-N-((1r,4r)-4-(((1-(6-(2,6-dioxopiperidin-3-yl)-4-methylpyridin-3-yl)piperidin-4-yl)methyl)(methyl)amino)cyclohexyl)-3-methoxybenzamide]	+++ (+++: <0.3)	< 30	< 30	> 10000
